Tests used:
[1] = molecular target: T1, human CB1 (Homo sapiens, UniProt P21554); experiment: hCB1 calcium mobilization assay
[2] = molecular target: T1, human CB1; experiment: [35S]GTPγS binding assay, hCB1 HEK293 membranes; type: biochemical
[3] = molecular target: T1, human CB1; experiment: BRET CAMYEL cAMP assay in HEK293 3HA-hCB1 cells; type: cell-based
[4] = molecular target: T1, human CB1; type: biochemical; details: operational model of allosterism; probe CP55,940

T1 sequence (P21554 whole entry): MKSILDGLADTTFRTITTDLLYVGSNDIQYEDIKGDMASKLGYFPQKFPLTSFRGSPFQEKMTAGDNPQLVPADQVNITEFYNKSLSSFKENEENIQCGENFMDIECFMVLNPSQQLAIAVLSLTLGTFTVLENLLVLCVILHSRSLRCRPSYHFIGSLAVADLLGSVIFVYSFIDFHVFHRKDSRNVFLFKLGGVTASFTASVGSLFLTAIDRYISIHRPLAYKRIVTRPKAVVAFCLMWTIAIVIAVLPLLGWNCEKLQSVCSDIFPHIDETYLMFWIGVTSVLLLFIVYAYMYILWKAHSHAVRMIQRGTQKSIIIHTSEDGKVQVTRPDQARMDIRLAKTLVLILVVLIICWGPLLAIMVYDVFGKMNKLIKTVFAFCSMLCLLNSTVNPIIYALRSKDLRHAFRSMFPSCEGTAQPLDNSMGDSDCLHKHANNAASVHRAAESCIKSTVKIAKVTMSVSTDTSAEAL

SMILES	IC50 [1] [µM]	IC50 [2] [µM]	potency in the cAMP assay [3]	further results
O=C(NCc1ccccc1)Nc1ccc(Cl)cc1 [Compound 13, 3‐(4‐Chlorophenyl)‐1‐(3‐phenylmethyl)urea]	> 10	–	–	–
O=C(NCCc1ccc(N2CCCCC2)cc1)Nc1ccc(Cl)cc1 [Compound 9, 1-(4-Chlorophenyl)-3-{2-[4-(piperidin-1-yl)phenyl]ethyl}-urea]	–	–	–	alpha (binding cooperativity) [4]: 5.1; beta (modification of probe efficacy) [4]: 0.09; logalpha (binding cooperativity) [4]: 0.7 ± 0.1; logbeta (modification of probe efficacy) [4]: −1.1 ± 0.1
CC(C)(Cc1ccccc1)NC(=O)Nc1ccc(Cl)cc1 [Compound 16, 1-(4-Chlorophenyl)-3-(2-methyl-1-phenylpropan-2-yl)urea]	> 10	–	–	–
CN(C)c1ccc(CCNC(=O)Nc2ccc(Cl)cc2)cc1 [Compound 12, 3‐(4‐Chlorophenyl)‐1‐{2‐[4‐(dimethylamino)phenyl]ethyl}-urea]	–	–	low micromolar range	–
O=C(NCCc1ccccc1)Nc1ccc(Cl)cc1 [Compound 8, 3‐(4‐Chlorophenyl)‐1‐(2‐phenylethyl)urea]	–	–	low micromolar range	–

More lines, main results first:

IC50 [1] [µM]	IC50 [2] [µM]	potency in the cAMP assay [3]	SMILES	further results
0.794	7.94	–	O=C(NCCc1cccs1)Nc1ccc(Cl)cc1 [Compound 25, 1-(4-Chlorophenyl)-3-[2-(thiophen-2-yl)ethyl]urea]	–
> 10	–	–	CC(C)(CNC(=O)Nc1ccc(Cl)cc1)c1ccccc1 [Compound 15, 1-(4-Chlorophenyl)-3-(2-methyl-2-phenylpropyl)urea]	–
0.251	12.6	low micromolar range	Cc1ccc(CCNC(=O)Nc2ccc(Cl)cc2)o1 [Compound 26, 1‐(4‐Chlorophenyl)‐3‐[2‐(5‐methylfuran‐2‐yl)ethyl]urea]	IC50 [3]: 3.98 µM
1.58	7.94	–	O=C(NCCc1ccsc1)Nc1ccc(Cl)cc1 [Compound 24, 1-(4-Chlorophenyl)-3-[2-(thiophen-3-yl)ethyl]urea]	–
> 10	–	–	O=C(Nc1ccc(Cl)cc1)NC1(Cc2ccccc2)CC1 [Compound 19, 1-(1-Benzylcyclopropyl)-3-(4-chlorophenyl)urea]	–
